Source: patent publication US4209521A, “Anti-depressant indole derivatives” (John Wyeth & Brother Limited, priority 1977, dated 1980)
Entries after “also recorded” stand apart in the source; their conditions may differ.

Key:
[1] = system: neuronal uptake of noradrenaline into slices of cerebral cortex; assay: Inhibition of noradrenaline uptake in brain slices; format: cell-based, rat; details: for Potency Ratio (imipramine = 1.0) Noradrenaline: inhibition of noradrenaline uptake, rat cerebral cortex slices, relative to imipramine = 1.0; for Inhibition of noradrenaline uptake (in words): qualitative
Excerpt: Concentration-response curves are obtained both for the test compound and for the standard agent, imipramine. The potency of each test compound is expressed in proportion to that of imipramine. Thus, the potency ratio for the test compound= [formula]

[2] = system: uptake of 5-hydroxytryptamine in slices of cerebral cortex; assay: Inhibition of 5-hydroxytryptamine uptake in brain slices; format: cell-based, rat; details: for Potency Ratio (imipramine = 1.0) 5-Hydroxytryptamine: inhibition of 5-hydroxytryptamine uptake, rat cerebral cortex slices, relative to imipramine = 1.0; for Inhibition of 5-hydroxytryptamine uptake (in words): qualitative
Description: The effects of test compounds on the neuronal uptake of noradrenaline into slices of cerebral cortex prepared from rat brain is determined according to the method described by Snyder, Green and Hendley, Kinetics of H^3 -norepihephrine accumulation into slices from different regions of the rat brain (J. Pharm. exp. Therap. 164: 90-102) (1968). The effects of test compounds on the uptake of 5-hydroxytryptamine is obtained in a similar manner except that H^3 5-hydroxytryptamine is used in place of H^3 noradrenaline. Concentration-response curves are obtained both for the test compound and for the standard agent, imipramine. The potency of each test compound is expressed in proportion to that of imipramine. Thus, the potency ratio for the test compound= [formula]

hypertensive rats [3] = assay: Anti-hypertensive activity in deoxycorticosterone acetate hypertensive rats; format: in vivo, rat; details: for Reduction of blood pressure (in words): hypertensive rats, p.o., qualitative
Description: Female rats are rendered hypertensive by unilateral nephrectomy and the s.c. implantation of a pellet containing 30 mg of deoxycorticosterone acetate. The drinking water is replaced by normale saline ad lib for the first four weeks following preparation. Blood pressure stabilise at a hypertensive level after 6 weeks. Systolic pressure is measured indirectly before dosing with a test compound using an E and M pneumatic pulse transducer and a Devices MX2 recorder. Groups of 4 rats are dosed orally with suspensions or solutions of the test compound in 0.5% hydroxypropyl-methyl-cellulose 0.9% saline vehicle. Blood pressures are recorded again at 2, 6 and 24 hours and the results, expressed as a percentage of the pre-dose values compared with those of a similar group of rats receiving vehicle alone.

hypertensive rats [4] = assay: Another procedure for determining anti-hypertensive activity in hypertensive rats; format: in vivo, rat; details: qualitative
mice (CF-1) = assay: CNS Activity (Effect on Behaviour of Mice); format: in vivo, mouse (CF-1)
Description: The test compounds are administered orally to three mice (CF-1 14 to 24 grams) at each of the following doses: 400, 127, 40 and 12.7 mg/kg. The animals are watched for two hours during which time signs of general stimulation (i.e. increased spontaneous motor activity, hyperactivity on tactile stimulation, twitching), general depression (i.e. decreased spontaneous motor activity, decreased respiration) and autonomic activity (i.e. miosis, mydriasis, diarrhoea) are noted.

mice = assay: Motor Activity (Exploratory behaviour in mice); format: in vivo, mouse; details: i.p., qualitative
Description: The test compounds were administered i.p. to mice (3 groups of 4 per dose) at time 0. Seventy minutes later the animals were transferred to square boxes placed beneath the detector heads of Aktograph activity monitors. The exploratory activity of the mice was counted over the following 20 minute period.

[5] = system: post-synaptic 5HT receptor; assay: 5HT Antagonism in Vitro (isolated rat ileum); format: cell-based
[6] = 50 mg/kg p.o., 2 hr after dosing
[7] = 50 mg/kg p.o., 6 hr after dosing
[8] = 50 mg/kg p.o., 24 hr after dosing
[9] = 10 mg/kg p.o., 2 hr after dosing
[10] = 10 mg/kg p.o., 6 hr after dosing
[11] = 10 mg/kg p.o., 24 hr after dosing
[12] = 25 mg/kg p.o., 2 hr after dosing
[13] = 25 mg/kg p.o., 6 hr after dosing
[14] = 25 mg/kg p.o., 24 hr after dosing
[15] = mice, oral, watched for two hours

`O=C(NC(=O)c1ccccc1)NC1CCN(Cc2c[nH]c3ccccc23)CC1` [Compound I, 1-[1-(indol-3-ylmethyl)piperid-4-yl]-3-benzoyl urea] was tested, and the “Potency Ratio (imipramine = 1.0) Noradrenaline” value [1] was 0.06, the “Inhibition of noradrenaline uptake (in words)” value [1] was “weak inhibitors of noradrenaline uptake” and the “Potency Ratio (imipramine = 1.0) 5-Hydroxytryptamine” value [2] was 10.0. The “Inhibition of 5-hydroxytryptamine uptake (in words)” value [2] was “potent inhibitors of 5HT uptake”, the “BP (systolic blood pressure)” value (hypertensive rats [3]; [6]) was 90 % control and the “HR (heart rate)” value (hypertensive rats [3]; [6]) was 101 % control. For the same compound, the “BP (systolic blood pressure)” value (hypertensive rats [3]; [7]) was 102 % control, the “HR (heart rate)” value (hypertensive rats [3]; [7]) was 98 % control and the “BP (systolic blood pressure)” value (hypertensive rats [3]; [8]) was 106 % control. The “HR (heart rate)” value (hypertensive rats [3]; [8]) was 84 % control, the “Reduction of blood pressure (in words)” value (hypertensive rats [3]) was “without significant activity; also recorded: does not induce marked CNS depression in animals or significantly reduce the blood pressure of hypertensive rats” and the “Anti-hypertensive activity (in words)” value (hypertensive rats [4]) was “moderate activity”. For the same compound, the “CNS depression / signs of sedation (in words)” value (mice (CF-1); mouse, in vivo) was “does not induce marked CNS depression in animals”, the “Lowest Dose to induce effect: Decreased activity” value (mice (CF-1); mouse, in vivo, po, 120 min) was 400 mg/kg p.o and the “Lowest Dose to induce effect: Slight weakness” value (mice (CF-1); mouse, in vivo, po, 120 min) was 400 mg/kg p.o. For the same compound, the “Effect on exploratory behaviour (in words)” value (mice) was “virtually without effect”, the “5HT antagonism: effect on responses of isolated rat ileum to 5-hydroxytryptamine” value ([5]; 10^-6 M, isolated rat ileum) was “the responses to the subsequent administration of 5HT were not affected” and the “Direct effect on the isolated rat ileum preparation” value ([5]; 10^-6 M, isolated rat ileum) was “caused the preparation to relax”. The “Antagonism of the post-synaptic 5HT receptor in vitro (in words)” value ([5]; in vitro, summary statement) was “does not antagonise the post-synaptic 5HT receptor in vitro”.

In the case of `O=C(NC(=O)c1ccccc1)NC1CCN(CCc2c[nH]c3ccccc23)CC1` [Compound II, 1-benzoyl-3-[1-(2-[3-indolyl]ethyl)piperid-4-yl]urea], the “Potency Ratio (imipramine = 1.0) Noradrenaline” value [1] is reported as 0.2, the “Inhibition of noradrenaline uptake (in words)” value [1] is reported as “weak inhibitors of noradrenaline uptake” and the “Potency Ratio (imipramine = 1.0) 5-Hydroxytryptamine” value [2] is reported as 8.0. The “Inhibition of 5-hydroxytryptamine uptake (in words)” value [2] was “potent inhibitors of 5HT uptake”, the “BP (systolic blood pressure)” value (hypertensive rats [3]; [9]) was 64 % control and the “HR (heart rate)” value (hypertensive rats [3]; [9]) was 109 % control. For the same compound, the “BP (systolic blood pressure)” value (hypertensive rats [3]; [10]) was 82 % control, the “HR (heart rate)” value (hypertensive rats [3]; [10]) was 96 % control and the “BP (systolic blood pressure)” value (hypertensive rats [3]; [11]) was 99 % control. For the same compound, the “HR (heart rate)” value (hypertensive rats [3]; [11]) was 97 % control, the “BP (systolic blood pressure)” value (hypertensive rats [3]; [12]) was 49 % control and the “HR (heart rate)” value (hypertensive rats [3]; [12]) was 119 % control. For the same compound, the “BP (systolic blood pressure)” value (hypertensive rats [3]; [13]) was 52 % control, the “HR (heart rate)” value (hypertensive rats [3]; [13]) was 104 % control and the “BP (systolic blood pressure)” value (hypertensive rats [3]; [14]) was 79 % control. The “HR (heart rate)” value (hypertensive rats [3]; [14]) was 97 % control, the “BP (systolic blood pressure)” value (hypertensive rats [3]; [6]) was 51 % control and the “HR (heart rate)” value (hypertensive rats [3]; [6]) was 105 % control. For the same compound, the “BP (systolic blood pressure)” value (hypertensive rats [3]; [7]) was 51 % control, the “HR (heart rate)” value (hypertensive rats [3]; [7]) was 90 % control and the “BP (systolic blood pressure)” value (hypertensive rats [3]; [8]) was 62 % control. For the same compound, the “HR (heart rate)” value (hypertensive rats [3]; [8]) was 96 % control, the “Reduction of blood pressure (in words)” value (hypertensive rats [3]) was “marked reduction of blood pressure” and the “Anti-hypertensive activity (in words)” value (hypertensive rats [4]) was “marked activity”. For the same compound, the “CNS depression / signs of sedation (in words)” value (mice (CF-1); animals (mice), qualitative) was “induced signs of sedation at doses considerably lower than those of compound I required to induce a similar effect”, the “Lowest Dose to induce effect: Ataxia” value (mice (CF-1); [15]) was 127 mg/kg p.o and the “Lowest Dose to induce effect: Catalepsy” value (mice (CF-1); [15]) was 400 mg/kg p.o. For the same compound, the “Lowest Dose to induce effect: Decreased activity” value (mice (CF-1); [15]) was 4.0 mg/kg p.o, the “Lowest Dose to induce effect: Decreased respiration” value (mice (CF-1); [15]) was 400 mg/kg p.o and the “Lowest Dose to induce effect: Ptosis” value (mice (CF-1); [15]) was 40 mg/kg p.o. The “Effect on exploratory behaviour (in words)” value (mice) was “marked reduction of exploratory behaviour” and the “5HT antagonism: effect on responses of isolated rat ileum to 5-hydroxytryptamine” value ([5]; 10^-6 M, isolated rat ileum) was “non-competitive blockade”.

For `COc1ccc2[nH]cc(CN3CCC(NC(=O)NC(=O)c4ccccc4)CC3)c2c1` [Example 2, 1-[1-(5-Methoxyindol-3-ylmethyl)piperid-4-yl]-3-benzoylurea], the “Potency Ratio (imipramine = 1.0) Noradrenaline” value [1] was “inactive” and the “Potency Ratio (imipramine = 1.0) 5-Hydroxytryptamine” value [2] was 3.2.

For `O=C(NC(=O)c1cccs1)NC1CCN(Cc2c[nH]c3ccccc23)CC1` [Example 3, 1-[1-(Indol-3-ylmethyl)piperid-4-yl]-3-(2-thenoyl)-urea], the “Potency Ratio (imipramine = 1.0) Noradrenaline” value [1] was 0.19 and the “Potency Ratio (imipramine = 1.0) 5-Hydroxytryptamine” value [2] was 7.8.

For `Cc1[nH]c2ccccc2c1CN1CCC(NC(=O)NC(=O)c2ccccc2)CC1` [Example 4, 1-Benzoyl-3-[1-([2-methylindol-3-yl]methyl)piperid-4-yl]urea], the “Potency Ratio (imipramine = 1.0) Noradrenaline” value [1] was 0.16 and the “Potency Ratio (imipramine = 1.0) 5-Hydroxytryptamine” value [2] was 0.8.

`O=C(NC(=O)c1ccccc1)NC1CCN(Cc2c[nH]c3ccc(O)cc23)CC1` [Example 5, 1-Benzoyl-3-[1-([5-hydroxyindol-3-yl]methyl)piperid-4-yl]urea] was tested, and the “Potency Ratio (imipramine = 1.0) Noradrenaline” value [1] was 0.2 and the “Potency Ratio (imipramine = 1.0) 5-Hydroxytryptamine” value [2] was 12.3.

`COc1ccc(C(=O)NC(=O)NC2CCN(Cc3c[nH]c4ccccc34)CC2)cc1` [Example 6, 3-(4-methoxybenzoyl)-1-(1-[indol-3-ylmethyl]piperid-4-yl)urea] was tested, and the “Potency Ratio (imipramine = 1.0) Noradrenaline” value [1] was 0.06 and the “Potency Ratio (imipramine = 1.0) 5-Hydroxytryptamine” value [2] was 5.0.

For `O=C(NC(=O)c1ccc(F)cc1)NC1CCN(Cc2c[nH]c3ccccc23)CC1` [Example 8, 1-(4-Fluorobenzoyl)-3-(1-[indol-3-ylmethyl]piperid-4-yl)urea], the “Potency Ratio (imipramine = 1.0) Noradrenaline” value [1] was 0.1 and the “Potency Ratio (imipramine = 1.0) 5-Hydroxytryptamine” value [2] was 1.04.

`O=C(NC(=S)NC1CCN(Cc2c[nH]c3ccccc23)CC1)c1ccccc1` [Example 10, 1-[1-(Indol-3-ylmethyl)piperid-4-yl]-3-benzoylthiourea] was tested, and the “Potency Ratio (imipramine = 1.0) 5-Hydroxytryptamine” value [2] was 6.5.

For `COc1cccc(C(=O)NC(=O)NC2CCN(Cc3c[nH]c4ccccc34)CC2)c1` [Example 11, 3-(3-Methoxybenzoyl)-1-(1-[indol-3-ylmethyl]piperid-4-yl)urea], the “Potency Ratio (imipramine = 1.0) 5-Hydroxytryptamine” value [2] was 2.7.
